A value given as a limit tells only on which side of the number the result lay.

The test system of the first assay is HCV replicon. Kind of assay: HCV replicon replication assay (NPT ELISA). The class given is cell-based. The conditions noted are these: Hepatitis C virus, 72 h; Huh-7 HCV replicon-containing cells, three days; class symbols; read-out: EC50. The protocol: Compounds claimed herein are tested for the ability to inhibit viral replication of the Hepatitis C replicon in cultured cells in which the HCV replicon construct has been incorporated. The HCV replicon system was described by Bartenschlager, et. al (Science, 285, pp. 110-113 (1999)). The replicon system is predictive of in vivo anti-HCV activity; compounds that are active in humans uniformly evidence activity in the replicon assay.
In this assay HCV replicon containing cells are treated with different concentrations of the test compound to ascertain the ability of the test compound to suppress replication of the HCV replicon. As a positive control, HCV replicon-containing cells are treated with different concentrations of interferon alpha, a known inhibitor of HCV replication. The replicon assay system includes Neomycin Phosphotransferase (NPT) as a component of the replicon itself in order to detect the transcription of replicon gene products in the host cell. Cells in which the HCV replicon is actively replicating have high levels of NPT; the level of NPT is proportional to HCV replication. […] The NPT level of each sample is measured using a captured ELISA.
A protocol for testing compounds for the ability to inhibit viral replication of the Hepatitis C replicon cultured cells in which the replicon construct has been incorporated, follows.
The HCV replicon contains, 5′-3′, the HCV-IRES, the neomycin phosphotransferase (neo) gene, the IRES of encephalomyocarditis virus, which directs translation of HCV sequences NS3 to NS5B, and the 3′-NTR. The sequence of the HCV replicon has been deposited in GenBank (Accession no. AJ242652).
The replicon is transfected into Huh-7 cells using standard methods such as electroporation.
The equipment and materials include, but are not limited to, Huh-7 HCV replicon-containing cells, maintenance media (DMEM (Dulbecco's modified Eagle media) supplemented with 10% FBS, L-glutamine, non-essential amino acids, penicillin (100 units/ml), streptomycin (100 micrograms/ml), and 500 micrograms/ml of Geneticin (G418), screening media (DMEM supplemented with 10% FBS, L-glutamine, non-essential amino acids, penicillin (100 units/ml) and streptomycin (100 micrograms/ml)), 96 well tissue culture plates (flat bottom), 96 well plates (U bottom for drug dilution), Interferon alpha for positive control, fixation reagent (such as methanol: acetone), primary antibody (rabbit anti-NPTII), secondary antibody: Eu-N1 1, and enhancement solution.
HCV replicon-containing cells support high levels of viral RNA replicon replication when their density is suitable. Over-confluency causes decreased viral RNA replication. Therefore, cells must be kept growing in log phase in the presence of 500 micrograms/ml of G418. Generally, cells should be passed twice a week at 1: 4-6 dilution. Cell maintenance is conducted as follows:
HCV replicon-containing cells are examined under a microscope to ensure that cells growing well. Cells are rinsed once with PBS and 2 ml trypsin is added. The cell/trypsin mixture is incubated at 37° C. in a CO2 incubator for 3-5 minutes. After incubation 10 ml of complete media is added to stop the trypsinization reaction. Cells are blown gently, put into a 15 ml tube, and spun at 1200 rpm for 4 minutes. The trypsin/medium solution is removed. Medium (5 ml) is added and the cells are mixed carefully. The cells are counted.
The cells are then seeded onto 96-well plates at a density of 6000-7500 cells/100 microliters/well (6−7.5×10^5 cells/10 ml/plate). The plates are then incubated at 37° C. in a 5% CO2 incubator.
Cells are examined under a microscope approximated 24 hours after seeding and prior to adding drugs. If counting and dilution were performed correctly, cells are 60-70% confluent and nearly all cells should attach and spread evenly in the well.
HCV replicon-containing cells are rinsed with once PBS once; 2 mls of trypsin are then added. Cells are incubated at 37° C. in a 5% CO2 incubator for 3-5 minutes. […]
In general terms: In antiviral work, replicon cells carry a viral genome segment that copies itself.
With `COC(=O)N[C@H](C(=O)N1C2CCC(C2)C1c1ncc(-c2ccc(-c3ccc(-c4cnc([C@@H]5CCCN5C(=O)[C@@H](NC(=O)OC)C(C)C)[nH]4)cc3)cc2)[nH]1)C(C)C` (stereo partly shown) [Compound 57], the EC50 – broadly, the concentration giving half of the maximal effect – was less than 5 nM. The same measure, in the same setting: with `COC(=O)NC(C(=O)N1CCC[C@H]1Cc1nc(-c2ccc(-c3ccc(-c4cnc([C@@H]5CCCN5C(=O)[C@@H](NC(=O)OC)C(C)C)[nH]4)cc3)cc2)c[nH]1)C(C)C` (stereo partly shown) [Compound 42] the figure was less than 5 nM; with `COC(=O)N[C@H](C(=O)N1C2CCC(C2)[C@H]1c1nc(-c2ccc(/C=C/c3ccc(-c4cnc([C@@H]5C6CCC(C6)N5C(=O)[C@@H](NC(=O)OC)C(C)C)[nH]4)cc3)cc2)c[nH]1)C(C)C` (stereo partly shown) [Compound 72], less than 5 nM. On the same count and under the same terms, the result for `CNC(=O)C[C@H](C(=O)N1CCC[C@@H]1c1ncc(-c2ccc(-c3ccc(-c4cnc([C@@H]5CCCN5C(=O)[C@@H](CC(=O)NC)C(C)C)[nH]4)cc3)cc2)[nH]1)C(C)C` [Compound 40, (S)-3-((R)-2-(5-(4′-(2-((S)-1-((S)-2-isopropyl-4-(methylamino)-4-oxobutanoyl)pyrrolidin-2-yl)-1H-imidazol-5-yl)biphenyl-4-yl)-1H-imidazol-2-yl)pyrrolidine-1-carbonyl)-N,4-dimethylpentanamide] reads less than 5 nM; that for `COC(=O)NC(C(=O)N1C2CCC(CC2)C1c1ncc(-c2ccc(-c3ccc(-c4c[nH]c([C@@H]5C6CCC(CC6)N5C(=O)C(NC(=O)OC)C(C)C)n4)cc3)cc2)[nH]1)C(C)C` (stereo partly shown) [Compound 51], less than 5 nM. The same measure, in the same setting: with `COC(=O)N[C@H](C(=O)N1CCC[C@H]1c1ncc(-c2ccc(-c3ccc4oc(-c5cnc([C@@H]6C7CCC(C7)N6C(=O)[C@@H](NC(=O)OC)C(C)C)[nH]5)cc4c3)cc2)[nH]1)C(C)C` (stereo partly shown) [Compound 70] the figure was less than 5 nM. As for `COC(=O)N[C@H](C(=O)N1CCCCC1c1nc(-c2ccc(-c3ccc(-c4c[nH]c(C5CCCCN5C(=O)[C@@H](NC(=O)OC)C(C)C)n4)cc3)cc2)c[nH]1)C(C)C` (stereo partly shown) [Compound 50], the EC50 was less than 5 nM. Still for that read-out and setting: the result for `COC(=O)N[C@H](C(=O)N1CCCC[C@H]1c1nc(-c2ccc(-c3ccc(-c4c[nH]c([C@@H]5CCCN5C(=O)[C@@H](NC(=O)OC)C(C)C)n4)cc3)cc2)c[nH]1)C(C)C` [Compound 48] reads less than 5 nM. As to `COC(=O)N[C@H](C(=O)N1CC=CC1c1nc(-c2ccc(-c3ccc(-c4c[nH]c([C@@H]5C=CCN5C(=O)[C@@H](NC(=O)OC)C(C)C)n4)cc3)cc2)c[nH]1)C(C)C` (stereo partly drawn) [Compound 21, dimethyl (2S,2′S)-1,1′-((2R,2′R)-2,2′-(4,4′-(biphenyl-4,4′-diyl)bis(1H-imidazole-4,2-diyl))bis(1H-pyrrole-2,1(2H,5H)-diyl))bis(3-methyl-1-oxobutane-2,1-diyl)dicarbamate], the EC50 was less than 5 nM.

In the case of `CCS(=O)(=O)N[C@H](C(=O)N1C2CCC(C2)[C@H]1c1nc(-c2ccc(-c3ccc(-c4c[nH]c([C@@H]5C6CCC(C6)N5C(=O)[C@@H](NS(=O)(=O)CC)C(C)C)n4)cc3)cc2)c[nH]1)C(C)C` [Compound 33, N,N′-(2S,2′S)-1,1′-((3S,3′S)-3,3′-(4,4′-(biphenyl-4,4′-diyl)bis(1H-imidazole-4,2-diyl))bis(2-azabicyclo[2.2.1]heptane-3,2-diyl))bis(3-methyl-1-oxobutane-2,1-diyl)diethanesulfonamide], the EC50 was less than 5 nM. The same measure, in the same setting: with `CC(=O)N[C@H](C(=O)N1CC=CC1c1nc(-c2ccc(-c3ccc(-c4c[nH]c(C5C=CCN5C(=O)[C@@H](NC(C)=O)C(C)C)n4)cc3)cc2)c[nH]1)C(C)C` (stereo partly drawn) [Compound 28, N,N′-(2S,2′S)-1,1′-((2R,2′R)-2,2′-(4,4′-(biphenyl-4,4′-diyl)bis(1H-imidazole-4,2-diyl))bis(1H-pyrrole-2,1(2H,5H)-diyl))bis(3-methyl-1-oxobutane-2,1-diyl)diacetamide] the figure was less than 50 nM; with `COC(=O)N[C@H](C(=O)N1C2CCC(C2)[C@H]1c1nc(-c2ccc(-c3c[nH]c([C@@H]4C5CCC(C5)N4C(=O)[C@@H](NC(=O)OC)C(C)C)n3)cc2)c[nH]1)C(C)C` [Compound 74], less than 50 nM. Take `COC(=O)N[C@@H](C(=O)N1c2ccccc2C[C@H]1c1nc(-c2ccc(-c3ccc(-c4cnc([C@@H]5Cc6ccccc6N5)[nH]4)cc3)cc2)c[nH]1)C(C)C` [Compound 26, methyl (R)-1-((S)-2-(4-(4′-(2-((S)-indolin-2-yl)-1H-imidazol-5-yl)biphenyl-4-yl)-1H-imidazol-2-yl)indolin-1-yl)-3-methyl-1-oxobutan-2-ylcarbamate]: the EC50 is less than 5 nM.

`COC(=O)N[C@H](C(=O)N1CCCCCC1c1nc(-c2ccc(-c3ccc(-c4c[nH]c(C5CCCCCN5C(=O)[C@@H](NC(=O)OC)C(C)C)n4)cc3)cc2)c[nH]1)C(C)C` (stereo partly drawn) [Compound 61, dimethyl (2S,2′S)-1,1′-(2,2′-(4,4′-(biphenyl-4,4′-diyl)bis(1H-imidazole-4,2-diyl))bis(azepane-2,1-diyl))bis(3-methyl-1-oxobutane-2,1-diyl)dicarbamate]: the EC50 is less than 50 nM. Same read-out and setting: the result for `COC(=O)N[C@H]1CC[C@H]2CC[C@@H](c3ncc(-c4ccc(-c5ccc(-c6cnc([C@@H]7CCCN7C(=O)[C@@H](NC(=O)OC)C(C)C)[nH]6)cc5)cc4)[nH]3)N2C1=O` [Compound 55] reads less than 50 nM; that for `COC(=O)N[C@H](C(=O)N1CCC[C@H]1c1nc(-c2ccc(-c3ccc(-c4c[nH]c([C@@H]5C6CCC(CC6)N5C(=O)[C@@H](NC(=O)OC)C(C)C)n4)cc3)cc2)c[nH]1)C(C)C` [Compound 47], less than 5 nM. Same read-out and setting: with `COC(=O)N[C@H](C(=O)N1CCC[C@H]1c1ncc(-c2ccc(-c3ccc(-c4c[nH]c([C@@H]5C6CCC(C6)N5C(=O)[C@@H](NC(=O)OC)C(C)C)n4)cc3)cc2)[nH]1)C(C)C` (stereo partly shown) [Compound 36] the figure was less than 50 nM.

Staying with this assay, now noted: Hepatitis C virus, 72 h; Huh-7 HCV replicon-containing cells, three days; numeric cells; read-out: EC50.
For `COC(=O)N[C@H](C(=O)N1CCC[C@H]1c1cnc(-c2ccc(-c3ccc(NC(=O)[C@H]4CCCCN4C(=O)[C@H](NC(=O)OC(C)(C)C)c4ccccc4)cc3)cc2)[nH]1)C(C)C` [Compound 39], the concentration for a half-maximal effect (EC50) is greater than 1 nM. Still for that read-out and setting: with `CNC(=O)C[C@H](C(=O)N1C2CCC(C2)[C@H]1c1nc(-c2ccc(-c3ccc(-c4cnc([C@@H]5C6CCC(C6)N5C(=O)[C@@H](CC(=O)NC)C(C)C)[nH]4)cc3)cc2)c[nH]1)C(C)C` (stereo partly drawn) [Compound 38, (3S,3′S)-3,3′-(3S,3′S)-3,3′-(4,4′-(biphenyl-4,4′-diyl)bis(1H-imidazole-4,2-diyl))bis(2-azabicyclo[2.2.1]heptane-3,2-diyl)bis(oxomethylene)bis(N,4-dimethylpentanamide)] the figure was greater than 1 nM; with `COC(=O)NC(C(=O)N1C2CCC(C2)C1c1nc2ccc(-c3ccc4[nH]c(C5C6CCC(C6)N5C(=O)[C@@H](NC(=O)OC)C(C)C)nc4c3)cc2[nH]1)C(C)C` (stereo partly shown) [Compound 64], 619 nM.

Staying with this assay, now noted: Hepatitis C virus, Huh-7.
Turning to `CNC(=O)C[C@H](C(=O)N1CCC[C@@H]1c1ncc(-c2ccc(-c3ccc(-c4cnc([C@@H]5CCCN5C(=O)[C@@H](CC(=O)NC)C(C)C)[nH]4)cc3)cc2)[nH]1)C(C)C` [Compound 40, (S)-3-((R)-2-(5-(4′-(2-((S)-1-((S)-2-isopropyl-4-(methylamino)-4-oxobutanoyl)pyrrolidin-2-yl)-1H-imidazol-5-yl)biphenyl-4-yl)-1H-imidazol-2-yl)pyrrolidine-1-carbonyl)-N,4-dimethylpentanamide], the EC50 is no more than 10000 nM. With `CCS(=O)(=O)N[C@H](C(=O)N1C2CCC(C2)[C@H]1c1nc(-c2ccc(-c3ccc(-c4c[nH]c([C@@H]5C6CCC(C6)N5C(=O)[C@@H](NS(=O)(=O)CC)C(C)C)n4)cc3)cc2)c[nH]1)C(C)C` [Compound 33, N,N′-(2S,2′S)-1,1′-((3S,3′S)-3,3′-(4,4′-(biphenyl-4,4′-diyl)bis(1H-imidazole-4,2-diyl))bis(2-azabicyclo[2.2.1]heptane-3,2-diyl))bis(3-methyl-1-oxobutane-2,1-diyl)diethanesulfonamide], the EC50 was no more than 10000 nM. As to `COC(=O)N[C@H](C(=O)N1CCC[C@H]1c1cnc(-c2ccc(-c3ccc(NC(=O)[C@H]4CCCCN4C(=O)[C@H](NC(=O)OC(C)(C)C)c4ccccc4)cc3)cc2)[nH]1)C(C)C` [Compound 39], the EC50 was no more than 10000 nM.

`CNC(=O)C[C@H](C(=O)N1C2CCC(C2)[C@H]1c1nc(-c2ccc(-c3ccc(-c4cnc([C@@H]5C6CCC(C6)N5C(=O)[C@@H](CC(=O)NC)C(C)C)[nH]4)cc3)cc2)c[nH]1)C(C)C` (stereo partly drawn) [Compound 38, (3S,3′S)-3,3′-(3S,3′S)-3,3′-(4,4′-(biphenyl-4,4′-diyl)bis(1H-imidazole-4,2-diyl))bis(2-azabicyclo[2.2.1]heptane-3,2-diyl)bis(oxomethylene)bis(N,4-dimethylpentanamide)] showed an EC50 of no more than 10000 nM.

Staying with this assay, now noted: Hepatitis C virus, Huh-7, 72 h.
With `CNC(=O)C[C@H](C(=O)N1CCC[C@H]1c1ncc(-c2ccc3c(c2)Cc2cc(-c4cnc([C@@H]5CCCN5C(=O)[C@@H](CC(=O)NC)C(C)(C)C)[nH]4)ccc2-3)[nH]1)C(C)(C)C` [Compound 37, (3S,3′S)-3,3′-(2S,2′S)-2,2′-(5,5′-(9H-fluorene-2,7-diyl)bis(1H-imidazole-5,2-diyl))bis(pyrrolidine-2,1-diyl)bis(oxomethylene)bis(N,4,4-trimethylpentanamide)], the EC50 was greater than 1 nM.
